From PubChem BioAssay AID248 (DTP/NCI, 2004)
“And” between values parts separate entries of the source, which are not always exact repeats. Equal entries are not always repeated. Inconclusive results and toxic doses are left out. No stated cut-off is given here; in the data, active means T/C of 150% or more; inactive means T/C below 125%.

Test system: L1210 leukemia ip in BDF1 mice, survival T/C
Assay: NCI In Vivo Anticancer Drug Screen. Data for tumor model L1210 Leukemia (intraperitoneal) in B6D2F1 (BDF1) mice
Conditions: endpoint: mean survival time, higher = longer survival
Procedure, shortened: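 Survival endpoint. Drug-treated group vs vehicle group, expressed as T divided by C. Tumor passaged by transplantation.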

[1] = dose: 50.0 mg/kg/injection, schedule: Q01DX009 (ip), vehicle: saline with Tween-80
[2] = dose: 100.0 mg/kg/injection, schedule: Q01DX009 (ip), vehicle: saline with Tween-80
[3] = dose: 100.0 mg/kg/injection, schedule: Q04DX003 (ip), vehicle: saline with Tween-80
[4] = dose: 200.0 mg/kg/injection, schedule: Q01DX009 (ip), vehicle: saline with Tween-80
[5] = dose: 200.0 mg/kg/injection, schedule: Q04DX003 (ip), vehicle: saline with Tween-80
[6] = dose: 400.0 mg/kg/injection, schedule: Q01DX009 (ip), vehicle: saline with Tween-80
[7] = dose: 400.0 mg/kg/injection, schedule: Q04DX003 (ip), vehicle: saline with Tween-80
[8] = dose: 75.0 mg/kg/injection, schedule: Q01DX001 (ip), vehicle: saline
[9] = dose: 50.0 mg/kg/injection, schedule: Q04DX002 (ip), vehicle: saline
[10] = dose: 100.0 mg/kg/injection, schedule: Q01DX009 (ip), vehicle: saline
[11] = dose: 100.0 mg/kg/injection, schedule: Q04DX002 (ip), vehicle: saline
[12] = dose: 100.0 mg/kg/injection, schedule: Q04DX003 (ip), vehicle: saline
[13] = dose: 200.0 mg/kg/injection, schedule: Q04DX002 (ip), vehicle: saline
[14] = dose: 100.0 mg/kg/injection, schedule: Q04DX003 (ip), vehicle: Klucel (hydroxypropylcellulose) (HPC)
[15] = dose: 200.0 mg/kg/injection, schedule: Q04DX003 (ip), vehicle: Klucel (hydroxypropylcellulose) (HPC)
[16] = dose: 400.0 mg/kg/injection, schedule: Q04DX003 (ip), vehicle: Klucel (hydroxypropylcellulose) (HPC)
[17] = dose: 25.0 mg/kg/injection, schedule: Q04DX002 (ip), vehicle: Klucel (hydroxypropylcellulose) (HPC)
[18] = dose: 100.0 mg/kg/injection, schedule: Q04DX002 (ip), vehicle: Klucel (hydroxypropylcellulose) (HPC)
[19] = dose: 200.0 mg/kg/injection, schedule: Q04DX002 (ip), vehicle: Klucel (hydroxypropylcellulose) (HPC)
[20] = dose: 400.0 mg/kg/injection, schedule: Q04DX002 (ip), vehicle: Klucel (hydroxypropylcellulose) (HPC)
[21] = dose: 100.0 mg/kg/injection, schedule: Q01DX001 (ip), vehicle: Klucel (hydroxypropylcellulose) (HPC)
[22] = dose: 100.0 mg/kg/injection, schedule: Q01DX009 (ip), vehicle: Klucel (hydroxypropylcellulose) (HPC)
[23] = dose: 200.0 mg/kg/injection, schedule: Q01DX009 (ip), vehicle: Klucel (hydroxypropylcellulose) (HPC)
[24] = dose: 400.0 mg/kg/injection, schedule: Q01DX009 (ip), vehicle: Klucel (hydroxypropylcellulose) (HPC)
[25] = dose: 100.0 mg/kg/injection, schedule: Q01DX001 (ip), vehicle: carboxymethylcellulose (CMC)
[26] = dose: 200.0 mg/kg/injection, schedule: Q01DX001 (ip), vehicle: carboxymethylcellulose (CMC)
[27] = dose: 400.0 mg/kg/injection, schedule: Q01DX001 (ip), vehicle: carboxymethylcellulose (CMC)

Measured: T/C

OCCOc1c(Cl)cc(Cl)cc1Cl
inactive: [1] 100 % of control | [2] 94 % of control and 100 % of control | [3] 93 % of control | [4] 100 % of control | [5] 90 % of control | [6] 93 % of control | [7] 111 % of control

CCCCOC(=O)c1ccc(NC(=O)NCCC)cc1
inactive: [2] 90 % of control | [4] 88 % of control | [6] 95 % of control

Cc1noc(NS(=O)(=O)c2ccc(N=NC3SC(=S)NC3=O)cc2)c1C (stereo not drawn)
inactive: [8] 95 % of control | dose: 150.0 mg/kg/injection, schedule: Q01DX001 (ip), vehicle: saline 98 % of control | dose: 300.0 mg/kg/injection, schedule: Q01DX001 (ip), vehicle: saline 101 % of control

CCN(CC)CC(=O)NCC(CCN(C)C)(c1ccc2ccccc2c1)C(C)C (stereo not drawn)
inactive: dose: 25.0 mg/kg/injection, schedule: Q04DX003 (ip), vehicle: saline 99 % of control | [9] 97 % of control | dose: 50.0 mg/kg/injection, schedule: Q04DX003 (ip), vehicle: saline 94 % of control | [10] 98 % of control | [11] 106 % of control | [12] 97 % of control | [13] 86 % of control

CCCCC(CCCC)NC(C)CO (stereo not drawn)
inactive: [8] 102 % of control

CCCCCCCCCCCCCCCCOc1ccc(C(=O)O)cc1NC(=O)CC(C)=O
inactive: [14] 92 % of control | [15] 95 % of control | [16] 92 % of control

CCCCC(c1nc2c(c3c1CCCC3)CCCC2)C(O)(C(F)(F)F)C(F)(F)F (stereo not drawn)
inactive: dose: 25.0 mg/kg/injection, schedule: Q01DX009 (ip), vehicle: saline with Tween-80 102 % of control | [1] 104 % of control | [2] 93 % of control and 87 % of control | [3] 97 % of control | [4] 89 % of control | [5] 100 % of control | [7] 102 % of control

COc1ccc2c(c1)C(CO)c1ccc(Cl)cc1N2 (stereo not drawn)
inactive: [3] 93 % of control | [5] 96 % of control | [7] 94 % of control

CCCCCCCc1ccc(N=Cc2ccc(OCCC)cc2)cc1
inactive: [2] 100 % of control | [4] 87 % of control | [6] 86 % of control

Nc1nccnc1C(=O)NOCc1ccccc1
inactive: [17] 90 % of control | dose: 50.0 mg/kg/injection, schedule: Q04DX002 (ip), vehicle: Klucel (hydroxypropylcellulose) (HPC) 90 % of control | [18] 101 % of control and 111 % of control | [19] 105 % of control | [20] 96 % of control and 97 % of control

COC(=O)C([CH2][Sn]([c]1ccccc1)([c]1ccccc1)[c]1ccccc1)NC(=O)Cc1ccccc1 (stereo not drawn)
inactive: dose: 50.0 mg/kg/injection, schedule: Q01DX009 (ip), vehicle: saline 96 % of control | [10] 100 % of control | dose: 200.0 mg/kg/injection, schedule: Q01DX009 (ip), vehicle: saline 100 % of control

O=C(O)c1ccccc1Cc1cccc2c(Cl)cccc12
inactive: [21] 97 % of control | dose: 200.0 mg/kg/injection, schedule: Q01DX001 (ip), vehicle: Klucel (hydroxypropylcellulose) (HPC) 98 % of control | dose: 400.0 mg/kg/injection, schedule: Q01DX001 (ip), vehicle: Klucel (hydroxypropylcellulose) (HPC) 101 % of control

O=[N+]([O-])c1ccc(N/N=C/C23CC4CC(CC(C4)C2)C3)c([N+](=O)[O-])c1
inactive: dose: 3.12 mg/kg/injection, schedule: Q04DX002 (ip), vehicle: Klucel (hydroxypropylcellulose) (HPC) 121 % of control | dose: 6.25 mg/kg/injection, schedule: Q04DX002 (ip), vehicle: Klucel (hydroxypropylcellulose) (HPC) 110 % of control | dose: 12.5 mg/kg/injection, schedule: Q04DX002 (ip), vehicle: Klucel (hydroxypropylcellulose) (HPC) 113 % of control | [17] 94 % of control | [21] 98 % of control

C(=NCCc1ccccc1)c1ccccc1B1OB(c2ccccc2C=NCCc2ccccc2)OB(c2ccccc2C=NCCc2ccccc2)O1
inactive: [22] 97 % of control | [14] 91 % of control | [23] 97 % of control | [15] 89 % of control | [24] 102 % of control | [16] 94 % of control

Cc1ccc(S(=O)(=O)OCCOCCOS(=O)(=O)c2ccc(C)cc2)cc1
inactive: [3] 100 % of control | [5] 104 % of control | [7] 100 % of control

CCCCCC(/C=N\NC(=O)CCCC(=O)N/N=C/C(=C/c1ccccc1)CCCCC)=C\c1ccccc1
inactive: dose: 50.0 mg/kg/injection, schedule: Q01DX001 (ip), vehicle: saline 89 % of control | dose: 100.0 mg/kg/injection, schedule: Q01DX001 (ip), vehicle: saline 95 % of control | dose: 200.0 mg/kg/injection, schedule: Q01DX001 (ip), vehicle: saline 97 % of control | dose: 400.0 mg/kg/injection, schedule: Q01DX001 (ip), vehicle: saline 89 % of control

O=[N+]([O-])c1ccc(CC(O)c2ccccc2Cl)cc1 (stereo not drawn)
inactive: [22] 102 % of control | [14] 101 % of control | [23] 102 % of control | [15] 101 % of control | [24] 97 % of control | [16] 97 % of control

COc1c2c(cc3c1N(C)C(=O)CC3C)C(C)CC(=O)N2 (stereo not drawn)
inactive: dose: 75.0 mg/kg/injection, schedule: Q04DX003 (ip), vehicle: Klucel (hydroxypropylcellulose) (HPC) 98 % of control

CN(C)c1c(-c2ccccc2)cc(-c2ccccc2)[nH]c1=O
inactive: [25] 95 % of control | [26] 95 % of control | [27] 88 % of control

CCN(CC)C(=O)c1cc([N+](=O)[O-])ccc1OCc1ccccc1
inactive: dose: 25.0 mg/kg/injection, schedule: Q04DX002 (ip), vehicle: saline with Tween-80 98 % of control | dose: 50.0 mg/kg/injection, schedule: Q04DX002 (ip), vehicle: saline with Tween-80 98 % of control | dose: 100.0 mg/kg/injection, schedule: Q04DX002 (ip), vehicle: saline with Tween-80 110 % of control and 91 % of control | dose: 200.0 mg/kg/injection, schedule: Q04DX002 (ip), vehicle: saline with Tween-80 89 % of control | dose: 400.0 mg/kg/injection, schedule: Q04DX002 (ip), vehicle: saline with Tween-80 95 % of control

O=C1CCC(=O)N1c1ccccc1
inactive: [18] 96 % of control | [19] 92 % of control | [20] 92 % of control

CC(O)C(N)C(=O)O (stereo not drawn)
inactive: dose: 12.5 mg/kg/injection, schedule: Q04DX002 (ip), vehicle: saline 103 % of control and 97 % of control | dose: 18.75 mg/kg/injection, schedule: Q04DX003 (ip), vehicle: saline 101 % of control | dose: 25.0 mg/kg/injection, schedule: Q04DX002 (ip), vehicle: saline 107 % of control | dose: 37.5 mg/kg/injection, schedule: Q04DX003 (ip), vehicle: saline 98 % of control | [9] 107 % of control | dose: 75.0 mg/kg/injection, schedule: Q04DX003 (ip), vehicle: saline 108 % of control and 114 % of control | [25] 87 % of control | [11] 107 % of control | dose: 150.0 mg/kg/injection, schedule: Q04DX003 (ip), vehicle: saline 108 % of control | [26] 91 % of control | [23] 91 % of control | [13] 93 % of control | dose: 300.0 mg/kg/injection, schedule: Q04DX003 (ip), vehicle: saline 94 % of control | [27] 89 % of control | dose: 400.0 mg/kg/injection, schedule: Q04DX002 (ip), vehicle: saline 107 % of control

N#CSC1CSC(SC2=NC(SC#N)CS2)=N1 (stereo not drawn)
inactive: [22] 94 % of control | [12] 98 % of control | [23] 104 % of control | dose: 200.0 mg/kg/injection, schedule: Q04DX003 (ip), vehicle: saline 92 % of control
